Source: patent US8809321B2, “Diaryl ether linked pyrrolo [2,1-c][1,4] benzodiazepine hybrids and process for the preparation thereof” (Council of Scientific and Industrial Research, priority 2011, dated 2014)

Experiments:
[1] = tested on: DWD oral cancer cell line; assay: MTT assay, 48 h continuous drug exposure, DWD; type: cell-based, human; details: oral cancer cell line; 48 h exposure; MTT; read-out: GI50 DWD
Method: (§1) For each compound, dose response curves for each cell line were measured at a minimum of five concentrations at 10 fold dilutions. A protocol of 48 h continuous drug exposure was used and a MTT assay was used to estimate cell viability or growth. The percent of cell growth (GI50) compared with the control was calculated.

[2] = tested on: duplex-form calf thymus DNA (CT-DNA); assay: Thermal denaturation studies with calf thymus DNA (DNA binding affinity); details: [PBD]:[DNA] molar ratio 1:5, CT-DNA 100 μM, ligand 20 μM, sodium phosphate buffer pH 7.00; for (ΔTm ° C.) after incubation at 37° C. for 0 h: 0 h at 37° C.; for (ΔTm ° C.) after incubation at 37° C. for 18 h: 18 h at 37° C.
Method: DNA Binding Affinity of Diaryl Ether Linked PBD Hybrids: Compounds have been subjected to thermal denaturation studies with duplex-form calf thymus DNA (CT-DNA) using a modification of a reported procedure (Newman, M. S. Carcinog-compr. Surv. 1976, 1, 203; ([…].; Loy, M.; Hoffman, Carcinog-compr. […] The DNA-PBD solutions have been incubated at 37° C. for 0 and 18 h prior to analysis. […] DNA helix→coil transition temperatures (Tm) have been obtained from the maxima in the d(A260)/dT derivative plots. […] The DNA binding activity for these novel C8-linked diaryl ether PBD hybrids has been examined by thermal denaturation studies using calf thymus (CT) DNA. […] The data for the compounds are included in Table 1 for comparison.

[3] = tested on: A549 lung cancer cell line; assay: MTT assay, 48 h continuous drug exposure, A549; type: cell-based, human; details: 48 h exposure
Method: (§2) Some of the C8-linked diaryl ether-PBD hybrids have been tested against eleven human tumour cell lines derived from seven cancer types (lung cancer, colon cancer, cervix, ovarian cancer, oral cancer, prostate cancer and breast cancer) as per Tata protocol as shown in Table 2. For each compound, dose response curves for each cell line were measured at a minimum of five concentrations at 10 fold dilutions. A protocol of 48 h continuous drug exposure was used and a MTT assay was used to estimate cell viability or growth. The percent of cell growth (GI50) compared with the control was calculated. Some of the compounds have been evaluated for their in vitro cytotoxicity in eleven cell lines from seven human cancer types. The results are expressed as GI50 determined relative to that of untreated control cells (Table-2).

[4] = tested on: PC3 prostrate cancer cell line; assay: MTT assay, 48 h continuous drug exposure, PC3; type: cell-based, human; details: prostrate cancer cell line; 48 h exposure; MTT; read-out: GI50 PC3
Method: as §1

[5] = tested on: ZR-751 breast cancer cell line; assay: MTT assay, 48 h continuous drug exposure, ZR-751; type: cell-based, human; details: breast cancer cell line; 48 h exposure; MTT; read-out: GI50 ZR-751
Method: as §1

[6] = tested on: Gurav oral cancer cell line; assay: MTT assay, 48 h continuous drug exposure, Gurav; type: cell-based, human; details: oral cancer cell line; 48 h exposure; MTT; read-out: GI50 Gurav
Method: as §1

[7] = tested on: A2780 ovarian cancer cell line; assay: MTT assay, 48 h continuous drug exposure, A2780; type: cell-based, human; details: ovarian cancer cell line; 48 h exposure; MTT; read-out: GI50 A2780
Method: as §1

[8] = tested on: MCF7 breast cancer cell line; assay: MTT assay, 48 h continuous drug exposure, MCF7; type: cell-based, human; details: 48 h exposure
Method: as §2

[9] = tested on: Colo205 colon cancer cell line; assay: MTT assay, 48 h continuous drug exposure, Colo205; type: cell-based, human; details: 48 h exposure
Method: as §2

[10] = tested on: SiHa Cervix cancer cell line; assay: MTT assay, 48 h continuous drug exposure, SiHa; type: cell-based, human; details: Cervix cancer cell line; 48 h exposure; MTT; read-out: GI50 SiHa
Method: as §1

[11] = tested on: Hop62 lung cancer cell line; assay: MTT assay, 48 h continuous drug exposure, Hop62; type: cell-based, human; details: lung cancer cell line; 48 h exposure; MTT; read-out: GI50 Hop62
Method: as §1

| Compound | GI50 [1] | (ΔTm ° C.) after incubation at 37° C. for 0 h [2] | (ΔTm ° C.) after incubation at 37° C. for 18 h [2] | GI50 [3] | GI50 [4] | GI50 [5] | GI50 [6] | GI50 [7] | GI50 [8] | GI50 [9] | GI50 [10] | GI50 [11] |
| --- | --- | --- | --- | --- | --- | --- | --- | --- | --- | --- | --- | --- |
| COc1cc2c(cc1OCCCCCOc1ccc(N)c(Oc3cc(OC)c(OC)c(OC)c3)c1)N=C[C@@H]1CCCN1C2=O [12g, 7-Methoxy-(8-5-[4-amino-3-(3,4,5-trimethoxyphenoxy)phenoxy]pentyloxy)-(11aS)-1,2,3,11a-tetrahydro-5H-pyrrolo[2,1-c][1,4]benzodiazepin-5-one] | 170 nM | 4.2 °C | 5.1 °C | 190 nM | 2190 nM | 2100 nM | 170 nM | 170 nM | 160 nM | 160 nM | 2860 nM | 2860 nM |
| COc1ccc(Oc2cc(OCCCCCOc3cc4c(cc3OC)C(=O)N3CCC[C@H]3C=N4)ccc2N)cc1OC [11g, 7-Methoxy-(8-5-[4-amino-3-(3,4-dimethoxyphenoxy)phenoxy]pentyloxy)-(11aS)-1,2,3,11a-tetrahydro-5H-pyrrolo[2,1-c][1,4]benzodiazepin-5-one] | 180 nM | 4.1 °C | 5.5 °C | 2010 nM | 2250 nM | 2500 nM | 160 nM | 170 nM | 160 nM | 170 nM | 1990 nM | 2430 nM |
| COc1ccc(Oc2cccc(OCCCCCOc3cc4c(cc3OC)C(=O)N3CCC[C@H]3C=N4)c2[N+](=O)[O-])cc1 [19g, 7-Methoxy-(8-3-[3-(4-methoxyphenoxy)-2-nitrophenoxy]pentyloxy)-(11aS)-1,2,3,11a-tetrahydro-5H-pyrrolo[2,1-c][1,4]benzodiazepin-5-one] | 2300 nM | 4.9 °C | 5.8 °C | 2220 nM | 2840 nM | 2500 nM | 2260 nM | 2300 nM | 2000 nM | 170 nM | 1620 nM | 2500 nM |
| COc1ccc(Oc2ccc(OCCCCCOc3cc4c(cc3OC)C(=O)N3CCC[C@H]3C=N4)cc2I)cc1OC [17c] | 2700 nM | 3.9 °C | 4.8 °C | 2450 nM | 2560 nM | 3800 nM | 2270 nM | 2800 nM | 2600 nM | 2260 nM | 2350 nM | 1120 nM |
| COc1ccc(Oc2ccc(OCCCCCOc3cc4c(cc3OC)C(=O)N3CCC[C@H]3C=N4)cc2[N+](=O)[O-])cc1OC [20c, 7-Methoxy-(8-3-[4-(3,4-dimethoxyphenoxy)-3-nitrophenoxy]pentyloxy)-(11aS)-1,2,3,11a-tetrahydro-5H-pyrrolo[2,1-c][1,4]benzodiazepin-5-one] | 130 nM | 4.9 °C | 5.6 °C | 150 nM | 160 nM | 130 nM | 1240 nM | 140 nM | 140 nM | 130 nM | 2470 nM | 140 nM |
| COc1cc2c(cc1OCCCCCN1CCN(C(=O)c3ccc(Oc4cc(OC)c(OC)c(OC)c4)c([N+](=O)[O-])c3)CC1)N=C[C@@H]1CCCN1C2=O [33c] | 2100 nM | 4.2 °C | 6.1 °C | 2240 nM | 2150 nM | 2200 nM | 170 nM | 2300 nM | 180 nM | 150 nM | 2250 nM | 2670 nM |
| COc1ccc(Oc2cccc(OCCCCCOc3cc4c(cc3OC)C(=O)N3CCC[C@H]3C=N4)c2[N+](=O)[O-])cc1OC [20g, 7-Methoxy-(8-3-[3-(3,4-dimethoxyphenoxy)-2-nitrophenoxy]pentyloxy)-(11aS)-1,2,3,11a-tetrahydro-5H-pyrrolo[2,1-c][1,4]benzodiazepin-5-one] | 180 nM | 4.5 °C | 6.0 °C | 190 nM | 2250 nM | 190 nM | 160 nM | 2000 nM | 2100 nM | 170 nM | 2500 nM | 190 nM |
| COc1ccc(Oc2ccc(C(=O)N3CCN(CCCCCOc4cc5c(cc4OC)C(=O)N4CCC[C@H]4C=N5)CC3)cc2[N+](=O)[O-])cc1OC [32c] | 140 nM | 4.8 °C | 7.3 °C | 140 nM | 190 nM | 150 nM | 120 nM | 150 nM | 170 nM | 160 nM | 1850 nM | 180 nM |
| COc1cc2c(cc1OCCCCCOc1ccc(Oc3cc(OC)c(OC)c(OC)c3)c(I)c1)N=C[C@@H]1CCCN1C2=O [18c] | 3000 nM | 4.6 °C | 5.5 °C | 3040 nM | 2570 nM | 2780 nM | 2680 nM | 3100 nM | 3600 nM | 3120 nM | 2220 nM | 2010 nM |
